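Tested at 5 concentrations; 48 h exposure; 96-well plates; endpoints linearly interpolated, else capped at highest concentration. At the GI50, growth is halved. TGI: concentration producing complete growth inhibition.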
Legend:
Assay in all cases: growth of human tumour cells (NCI), 48 h
[1] = system: 786-0 renal
[2] = system: A498 renal
[3] = system: A549 NSCLC
[4] = system: ACHN renal
[5] = system: BT-549 breast
[6] = system: CAKI-1 renal
[7] = system: CCRF-CEM leukemia
[8] = system: COLO 205 colon
[9] = system: DU-145 prostate
[10] = system: EKVX NSCLC
[11] = system: HCC-2998 colon
[12] = system: HCT-116 colon
[13] = system: HCT-15 colon
[14] = system: HOP-62 NSCLC
[15] = system: HOP-92 NSCLC
[16] = system: HS 578T breast
[17] = system: HT29 colon
[18] = system: K-562 leukemia
[19] = system: KM12 colon
[20] = system: LOX IMVI melanoma
[21] = system: M14 melanoma
[22] = system: MCF7 breast
[23] = system: MDA-MB-231 breast
[24] = system: MDA-MB-435
[25] = system: MOLT-4 leukemia
[26] = system: NCI-H23 lung
[27] = system: NCI-H460 lung
[28] = system: NCI/ADR-RES ovarian
[29] = system: OVCAR-3 ovarian
[30] = system: OVCAR-4 ovarian
[31] = system: OVCAR-5 ovarian
[32] = system: OVCAR-8 ovarian
[33] = system: PC-3 prostate
[34] = system: RPMI-8226 leukemia
[35] = system: RXF 393 renal
[36] = system: SF-268 CNS
[37] = system: SF-295 CNS
[38] = system: SF-539 CNS
[39] = system: SK-MEL-28 melanoma
[40] = system: SK-MEL-5 melanoma
[41] = system: SK-OV-3 ovarian
[42] = system: SN12C renal
[43] = system: SNB-19 CNS
[44] = system: SR leukemia
[45] = system: SW-620 colon
[46] = system: T-47D breast
[47] = system: TK-10 renal
[48] = system: U251 CNS
[49] = system: UACC-257 melanoma
[50] = system: UACC-62 melanoma

## CC(=O)OCC1OC(OC2CCCC[Si](c3ccccc3)(c3ccccc3)O2)C(OC(C)=O)C(OC(C)=O)C1OC(C)=O (stereo not given)
[1]
  GI50: > 100 µM
  TGI: > 100 µM
[2]
  GI50: > 100 µM
  TGI: > 100 µM
[3]
  GI50: > 100 µM
  TGI: > 100 µM
[4]
  GI50: > 100 µM
  TGI: > 100 µM
[5]
  GI50: > 100 µM
  TGI: > 100 µM
[6]
  GI50: 38.9 µM
  TGI: > 100 µM
[7]
  GI50: 35.5 µM
  TGI: > 100 µM
[8]
  GI50: > 100 µM
  TGI: > 100 µM
[9]
  GI50: > 100 µM
  TGI: > 100 µM
[10]
  GI50: > 100 µM
  TGI: > 100 µM
[11]
  GI50: > 100 µM
  TGI: > 100 µM
[12]
  GI50: 24.5 µM
  TGI: 59.2 µM
[13]
  GI50: > 100 µM
  TGI: > 100 µM
[14]
  GI50: > 100 µM
  TGI: > 100 µM
[15]
  GI50: > 100 µM
  TGI: > 100 µM
[16]
  GI50: > 100 µM
  TGI: > 100 µM
[17]
  GI50: > 100 µM
  TGI: > 100 µM
[18]
  GI50: 56.1 µM
  TGI: > 100 µM
[19]
  GI50: > 100 µM
  TGI: > 100 µM
[20]
  GI50: 53.6 µM
  TGI: > 100 µM
[21]
  GI50: > 100 µM
  TGI: > 100 µM
[22]
  GI50: 69.2 µM
  TGI: > 100 µM
[23]
  GI50: > 100 µM
  TGI: > 100 µM
[24]
  GI50: 51 µM
  TGI: > 100 µM
[25]
  GI50: 10.3 µM
  TGI: > 100 µM
[26]
  GI50: > 100 µM
  TGI: > 100 µM
[27]
  GI50: > 100 µM
  TGI: > 100 µM
[28]
  GI50: > 100 µM
  TGI: > 100 µM
[29]
  GI50: 13.3 µM
  TGI: 69.5 µM
[30]
  GI50: > 100 µM
  TGI: > 100 µM
[31]
  GI50: > 100 µM
  TGI: > 100 µM
[32]
  GI50: > 100 µM
  TGI: > 100 µM
[33]
  GI50: > 100 µM
  TGI: > 100 µM
[34]
  GI50: 32.6 µM
  TGI: > 100 µM
[35]
  GI50: > 100 µM
  TGI: > 100 µM
[36]
  GI50: > 100 µM
  TGI: > 100 µM
[37]
  GI50: > 100 µM
  TGI: > 100 µM
[38]
  GI50: 29.2 µM
  TGI: 79.1 µM
[39]
  GI50: > 100 µM
  TGI: > 100 µM
[40]
  GI50: > 100 µM
  TGI: > 100 µM
[41]
  GI50: > 100 µM
  TGI: > 100 µM
[42]
  GI50: > 100 µM
  TGI: > 100 µM
[43]
  GI50: > 100 µM
  TGI: > 100 µM
[44]
  GI50: 73.6 µM
  TGI: > 100 µM
[45]
  GI50: 53 µM
  TGI: > 100 µM
[46]
  GI50: > 100 µM
  TGI: > 100 µM
[47]
  GI50: > 100 µM
  TGI: > 100 µM
[48]
  GI50: > 100 µM
  TGI: > 100 µM
[49]
  GI50: > 100 µM
  TGI: > 100 µM
[50]
  GI50: > 100 µM
  TGI: > 100 µM

— PubChem BioAssay (NCI)
